Data from patent US6620793B2, “Therapeutic use of ganglioside GM1 in the treatment of spinal cord injury” (Fidia Farmaceutici S.p.A., priority 1991, dated 2003).
Values joined by “and” are separate entries in the source; they are usually repeats but may differ in a detail not shown here. Identical values can stand only once.

Columns and labels:
[1] = test system: patients with spinal cord injury; test: Randomized placebo-controlled double-blind spinal cord injury GM1 trial: Frankel grade; format: in vivo, humans
Source text: The first clinical scale used, that is the Frankel classification system, is extremely important because it provides a very relevant clinical index of neurological improvement of the patients.
More precisely, the Frankel classification system separates neurologic disability into five ordinal grades, according to the type and completeness of neurologic function remaining below the level of the spinal-cord injury, as follows: grad A, complete neurclogic injury; grade B, only sensation preserved; grade C, nonfunctional motor ability preserved; grade D, functional motor ability preserved; and grade E, normal motor function. The letters designating each grade were used by Frankel in his original description of this scale.

[2] = Solubility of purified GM1 sodium salt; format: physicochemical
Source text: The compound obtained after this purification has the following chemical characteristics and specifications:
Soluble in water, methanol-water and methanol-chloroform.

[3] = test system: patients with spinal cord injury; test: Randomized placebo-controlled double-blind spinal cord injury GM1 trial: ASIA motor score
Source text: This study was designed as a pilot study to test whether the neurologic recovery in humans after a spinal-cord injury could be altered by adding monosialbtetrahexosylganglioside (GM1) ganglioside beyond the routine medical and surgical care with which these trauma patients are initially treated.
A prospective, randomized, placebo-controlled, double-blinded spinal cord injury GM1 ganglioside drug trial was completed. Of the 37 patients, 34 patients (23 cervical and 11 thoracic injuries) who were randomly assigned to a treatment group and who followed the test drug protocol and completed the one year follow-up period, 16 patients were included in the GM1 group and 18 were in the placebo group.
The first dose of study drug was administered within 72 hours of the injury and then 17 to 29 additional 5 ml daily injections of 100 mg GM1 or placebo were given. The treatment (100 mg of GM1 sodium salt or placebo) was administered duly by the intravenous route for a total of 18-32 doses, with the first dose taken within 72 hours of the injury.
The complete composition of the GM1 ganglioside used in the study (Sygen, Fidia, Abano Terme, Italy) is 100 mg of GM1 sodium salt, 12.7 mM; 1.25 mg of sodium dihydrogen phosphate dihydrate, 1.6 mM; 15.0 mg of disodium hydrogen phosphate dodecahydrate, 8.4 mM; 40.0 mg of sodium chloride, 137.9 nM; and a quantity of water sufficient to yield an isotonic solution with a total volume of 5 ml for injection. The placebo vials were identical in appearance and composition, except that the GM1 was absent. Most of the test drug was administered by injection through an intravenous heparin lock. Some of the first few injections were given by an intravenous catheter, and occasionally, when the heparin lock was nonfunctional, a single direct-puncture intravenous injection was used.
The severity of spinal-cord injury and its subsequent recovery were quantified by serial measurement with both the Frankel scale and the American Spinal Injury Association (ASIA) motor score. Each measurement was made at the time of the first contact in the emergency room, at entry into the study, then twice per week for the first 4 weeks and after 2, 3, 6 and 12 months.
The second clinical scale used, that is the ASIA motor score, provides a quantifiable index of nerve-muscle functionality. More exactly, this scale has a range of 0 (complete quadriplegia) to 100 (normal motor function). Five key muscles in each extremity (the biceps, wrist extensors, triceps, flexor profundus, and hand intrinsics in the upper extremity, and the iliopsoas, quadriceps, tibialis anterior, extensor hallucis longus, and gastrocnemius in the lower extremity) are assessed on a scale for strength from 0 to 5 points in which 0 (absent) denotes total paralysis, 1 (trace) palpable or visible penetration, 2(poor) active movement through a range of motion in which gravity is not involved, 3 (fair) active movement through a range of motion against gravity, 4 (good) active movement through a range of motion against resistance, and 5 normal. The ASIA motor score is the sum of the scores for muscle strength in these 20 motor groups.
Furthermore, to better analyze the GM1 effect on muscular functionality, the 20 individual muscle groups in each patient were subdivided into three categories at entry: those initially paralyzed (a motor score of 0), those initially paretic (a motor score of 1 through 4), and those functioning normally (a motor score of 5).

SMILES: CCCCCCCCCCCCCC=CC(O)C(COC1OC(CO)C(OC2OC(CO)C(OC3OC(CO)C(O)C(OC4OC(CO)C(O)C(O)C4O)C3NC(C)=O)C(OC3(C(=O)[O-])CC(O)C(NC(C)=O)C(C(O)C(O)CO)O3)C2O)C(O)C1O)NC(=O)CCCCCCCCCCCCCCCCC.[Na+] (stereo not drawn) [GM1, Monosialotetrahexosylganglioside, sodium salt]
- Patients improved by two or more Frankel grades who were in the GM1 group ([1]; after one year, 100 mg GM1 i.v. daily, 18-32 doses, 8 of 34 patients improved overall): seven of eight
- Improvement with respect to Frankel grade versus placebo ([1]; entry to one year, P=0.034 Cochran-Mantel-Haenszel chi-square test): improved more than the placebo-treated patients
- Patients improved by two or more Frankel grades among those who had room to improve (number) ([1]; one year, placebo 1 of 14, P=0.033 Fisher's exact test, two-tailed): 7 of 14
- Patients improved by two or more Frankel grades among those who had room to improve (percent) ([1]; one year, placebo 7.1 percent, P=0.033 Fisher's exact test): 50%
- Solubility ([2]; in methanol, acetone, chloroform, ether and hexane): Virtually insoluble
- Solubility ([2]; in water, methanol-water and methanol-chloroform): Soluble
- Difference in improvement in ASIA motor score between groups, unadjusted ([3]; GM1 versus placebo, one year, mean ± SD, n=34, sodium salt): 15.3 and 15.3 ± 25.6
- Improvement in mean ASIA motor score ([3]; all patients, entry to one-year follow-up, mean ± SD, n=16): 36.9 ± 28.2
- Mean ASIA motor score at follow-up ([3]; all patients, one-year follow-up, mean ± SD, n=16): 62.8 ± 26.8
- Mean ASIA motor score at entry ([3]; all patients, study entry (baseline), mean ± SD, n=16, sodium salt): 25.9 and 25.9 ± 21.8
- Patients with a greater degree of ASIA motor recovery than any patient assigned to placebo ([3]; entry to one-year follow-up): three
- Patients with motor recoveries of more than 20 points in ASIA motor score (number) ([3]; entry to one-year follow-up, placebo 7 of 18): 11 of 16
- Patients with motor recoveries of more than 20 points in ASIA motor score (percent) ([3]; entry to one-year follow-up, placebo 38.9 percent): 68.8%
- Patients with no recovery in ASIA motor score ([3]; entry to one-year follow-up, placebo six patients): one
- Mean motor recovery in ASIA motor score ([3]; entry to score after one year, 95 percent CI 21.9 to 51.9): 36.9 points
- Muscle groups paralyzed at entry that regained useful-to-normal motor function (percent) ([3]; motor score 0 at entry to 3 to 5 after one year, placebo 25.3 percent): 51.7%
- Muscle groups paralyzed at entry that regained useful-to-normal motor function (number) ([3]; motor score 0 at entry to 3 to 5 after one year, placebo 49 of 194): 107 of 207
- Muscle groups paralyzed at entry that remained paralyzed (percent) ([3]; motor score 0 at entry, after one year, placebo 65.5 percent): 30.9%
- Muscle groups paralyzed at entry that remained paralyzed (number) ([3]; motor score 0 at entry, after one year, placebo 127 of 194): 64 of 207
- Patients with at least one muscle group paralyzed at entry that improved to a motor score of 3 or more (number) ([3]; one-year follow-up, post hoc, placebo 8 of 18, P=0.039 Fisher's exact test): 13 of 16
- Patients with at least one muscle group paralyzed at entry that improved to a motor score of 3 or more (percent) ([3]; one-year follow-up, post hoc, placebo 44.4 percent, P=0.039 Fisher's exact test): 81.3%
